# From patent US9439843B2, “Oral care compositions” (Colgate-Palmolive Company, priority 2011, dated 2016)
# Test: Solubility of isobutyl magnolol (statement in words)
# Format: physicochemical
# Details: background statement
smiles,measurement,value
"CC(C)Cc1ccc(O)c(-c2cc(CC(C)C)ccc2O)c1 [isobutyl magnolol, 5,5′-di(2-methylpropyl)-biphenyl-2,2′-diol]",solubility both in water and in oil,extremely poor
